Laboratory results from the supplement of paper PMC10307832.

Key:
Assay in all cases: relative viability (nuclei count vs DMSO), 5 days (fraction); higher = more cells survive
BMX-IN-1 + Pictilisib = compound: C=CC(=O)Nc1cc(-n2c(=O)ccc3cnc4ccc(-c5ccc(NS(C)(=O)=O)cc5)cc4c32)ccc1C [BMX-IN-1] + CS(=O)(=O)N1CCN(Cc2cc3nc(-c4cccc5[nH]ncc45)nc(N4CCOCC4)c3s2)CC1 [Pictilisib] (partner 1 µM)
Outline: (§1)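 One day after seeding in 1536-well plates, lung cancer cell lines were dosed by pin tool. Dosing was either single-drug or a fixed anchor-drug dose plus five library-drug doses (not always all listed) in √10 steps. After 5 days, nuclei were stained in one fix-and-stain step and counted on 4× images, and relative viability is the nuclei count of treated wells over that of vehicle wells, given as the median of duplicate plates.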

BMX-IN-1 + Linsitinib = compound: C=CC(=O)Nc1cc(-n2c(=O)ccc3cnc4ccc(-c5ccc(NS(C)(=O)=O)cc5)cc4c32)ccc1C [BMX-IN-1] + C[C@]1(O)C[C@@H](c2nc(-c3ccc4ccc(-c5ccccc5)nc4c3)c3c(N)nccn32)C1 [Linsitinib] (partner 1 µM)
Outline: as §1

PAC-1 + Palbociclib = compound: C=CCc1cccc(/C=N/NC(=O)CN2CCN(Cc3ccccc3)CC2)c1O [PAC-1] + CC(=O)c1c(C)c2cnc(Nc3ccc(N4CCNCC4)cn3)nc2n(C2CCCC2)c1=O [Palbociclib] (partner 0.5 µM)
Outline: as §1

PAC-1 + Pemetrexed = compound: C=CCc1cccc(/C=N/NC(=O)CN2CCN(Cc3ccccc3)CC2)c1O [PAC-1] + Nc1nc2[nH]cc(CCc3ccc(C(=O)N[C@@H](CCC(=O)O)C(=O)O)cc3)c2c(=O)[nH]1 [Pemetrexed] (partner 0.2 µM)
Outline: as §1

Cell Line	relative viability (BMX-IN-1 + Pictilisib; first compound 0.02 µM)	relative viability (BMX-IN-1 + Pictilisib; first compound 0.2 µM)	relative viability (BMX-IN-1 + Pictilisib; first compound 0.6325 µM)	relative viability (BMX-IN-1 + Pictilisib; first compound 2 µM)	relative viability (BMX-IN-1 + Linsitinib; first compound 0.02 µM)	relative viability (BMX-IN-1 + Linsitinib; first compound 0.2 µM)	relative viability (BMX-IN-1 + Linsitinib; first compound 0.6325 µM)	relative viability (BMX-IN-1 + Linsitinib; first compound 2 µM)	relative viability (PAC-1 + Palbociclib; first compound 0.02 µM)	relative viability (PAC-1 + Palbociclib; first compound 0.06325 µM)	relative viability (PAC-1 + Palbociclib; first compound 0.2 µM)	relative viability (PAC-1 + Palbociclib; first compound 2 µM)	relative viability (PAC-1 + Pemetrexed; first compound 0.02 µM)	relative viability (PAC-1 + Pemetrexed; first compound 0.06325 µM)	relative viability (PAC-1 + Pemetrexed; first compound 0.2 µM)	relative viability (PAC-1 + Pemetrexed; first compound 2 µM)
UMC-11	1.07	0.922	0.892	0.912	1.1	1.23	1.13	0.998	0.339	0.322	0.371	0.277	0.78	0.791	0.802	0.79
NCI-H1755	0.446	0.541	0.498	0.423	1.04	1.09	1.1	1	0.473	0.444	0.453	0.468	0.442	0.43	0.448	0.441
NCI-H1666	0.404	0.365	0.428	0.396	0.872	0.891	0.797	0.595	0.605	0.643	0.676	0.632	0.643	0.889	0.849	0.799
NCI-H23	0.483	0.495	0.582	0.411	0.614	0.606	0.471	0.548	0.629	0.521	0.524	0.533	0.623	0.705	0.817	0.775
COR-L23	1.1	1.3	0.76	0.855	1.62	1.11	0.994	1.01	0.33	0.243		0.277	0.206	0.192		0.206
PC-14	0.952	0.85	0.774	0.851	1.04	1.05	1.01	0.973	0.586	0.504	0.487	0.606	0.13	0.139	0.126	0.179
LCLC-97TM1	0.189	0.197	0.274	0.207	0.202	0.166	0.162	0.162	0.211	0.274		0.225	0.184	0.177		0.191
HOP-62	0.639	0.761	0.929	0.688	0.959	1	1.02	0.947	0.463	0.437	0.51	0.46	0.356	0.267	0.312	0.34
NCI-H1734	0.529	0.541	0.488	0.432	1.02	0.982	0.981	0.902	0.307	0.328	0.297	0.355	0.379	0.427	0.418	0.419
NCI-H1651	0.658	0.754	0.741	0.595	1.22	0.885	0.912	0.86	0.525	0.536	0.547	0.499	0.596	0.538	0.525	0.712
LK-2	0.8	0.696	0.543	0.59	0.798	0.792	0.696	0.765	0.536	0.809	0.616	0.63	0.238	0.244	0.246	0.321
NCI-H2009	1.19	0.946	0.905	0.765	1.27	1.27	1.29	1.2	0.203	0.231	0.236	0.239	1.03	0.989	1.1	0.989
NCI-H2347	0.748	0.576	0.613	0.748	1.1	1.02	1.04	0.958	0.499	0.435	0.477	0.414	0.412	0.435	0.41	0.46
NCI-H460	0.376	0.511	0.371	0.501	1.04	1.07	1.45	0.777	0.148	0.162	0.129	0.248	0.0683	0.0604	0.0685	0.0667
LC-2-ad	0.645	0.555	0.619	0.482	1.03	0.861	0.823	0.852	0.513	0.439	0.492	0.496	0.26	0.296	0.265	0.27
A-427	0.796	0.83	0.948	0.78	1.19	1.09	1.14	1.12	0.574	0.548	0.549	0.507	0.992	1.01	1.09	0.977
HCC-44	0.732	0.687	0.836	0.622	0.804	0.735	0.702	0.642	1.04	0.984	0.965	0.993	0.649	0.615	0.588	0.684
